Legend:
[1] = target: T1, perforin delivered by KHYG1 NK cells (Homo sapiens, UniProt P14222); experiment: KHYG1 inhibitory assay: lysis of 51Cr-labelled K562 target cells by KHYG1 NK cells; assay type: cell-based; conditions: 51Cr-labelled K562 target cells co-incubated with KHYG1 human NK cells, vs untreated control; for inhibition at 10 µM: n = 4
T1 construct: The use of whole NK cells to deliver perforin provides a more realistic model of conditions in vivo; endogenous in cells; host or cells: KHYG1 human NK cells (effector); K562 leukemia target cells
T1 sequence (P14222 22-555): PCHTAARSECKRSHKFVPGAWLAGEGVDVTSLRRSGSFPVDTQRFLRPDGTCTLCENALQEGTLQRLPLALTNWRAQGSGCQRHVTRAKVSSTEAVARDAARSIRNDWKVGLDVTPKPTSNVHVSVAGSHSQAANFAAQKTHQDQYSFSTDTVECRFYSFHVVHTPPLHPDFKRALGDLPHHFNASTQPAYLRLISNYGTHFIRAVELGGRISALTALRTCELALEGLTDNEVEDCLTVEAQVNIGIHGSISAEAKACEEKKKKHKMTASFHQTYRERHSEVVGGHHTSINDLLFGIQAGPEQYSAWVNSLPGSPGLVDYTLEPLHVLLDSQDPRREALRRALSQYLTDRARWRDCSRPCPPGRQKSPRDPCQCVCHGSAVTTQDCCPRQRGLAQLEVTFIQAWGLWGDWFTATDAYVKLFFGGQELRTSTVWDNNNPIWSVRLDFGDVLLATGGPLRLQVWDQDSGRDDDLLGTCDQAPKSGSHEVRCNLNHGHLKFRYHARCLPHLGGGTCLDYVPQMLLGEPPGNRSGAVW
Protocol: The inhibitory function is then determined by identifying the number of untreated or inhibitor treated effector cells required to kill the same number of targets.

[2] = Toxicity to KHYG1 NK cells (Trypan blue exclusion); assay type: cell-based, human; conditions: human, viability of KHYG1 NK cells after 24 h, n = 3
Protocol: The toxicity assay was carried out in exactly the same manner as the killing assay above, but instead of adding the labelled K562 target cells, 100 μL of RPMI 0.1% BSA was added. Cells were incubated for 4 h at 37 °C and then washed ×3 in RPMI + 0.1% BSA. […] Trypan blue was added to each well. Viable (clear) cells and total (clear + blue) cells were counted, and the percentage of viable cells was calculated compared to DMSO treated cell control (% viability).

[3] = Solubility of the sodium salt in water; assay type: physicochemical; conditions: sodium salt in water at room temperature
Protocol: The compound was dissolved in water until it was no longer soluble in order to achieve a supersaturated concentration. The suspensions were sonicated for 15 min. prior to centrifugation at 13,000 revolutions per minute (rpm) for 6 minutes. Supernatants were removed and then recentrifuged prior to dilution of at least two fold in water to avoid precipitation during HPLC analysis.

[4] = Microsome stability, mouse; assay type: in vitro ADME; conditions: parent (as sodium salt) remaining after 30 min, mouse microsomes
Protocol: (§1) Microsome stability was carried out at Cyprotex using pooled human liver microsomes (male and female), pooled rat liver microsomes (male, Sprague Dawley rats), pooled mouse liver microsomes (male CD-1 mice) which were either prepared or purchased from a reputable commercial supplier. […] The final incubation volume was 25 μL. A control incubation was included for each compound tested where 0.1 M phosphate buffer pH 7.4 was added instead of NADPH (minus NADPH). Two control compounds were included with each species. All incubations were performed singularly for each test compound. Each compound was incubated for 0, 5, 15, 30 and 45 min. The control (minus NADPH) was incubated for 45 min only. The reactions were stopped by the addition of 50 μL methanol containing internal standard at the appropriate time points. The incubation plates were centrifuged at 2,500 rpm for 20 min at 4 °C to precipitate the protein. Following precipitation, the sample supernatants were combined in cassettes of up to 4 compounds and analysed using Cyprotex generic LC-MS/MS conditions. From a plot of ln peak area ratio (compound peak area/internal standard peak area) against time, the percentage compound remaining at 30 min was calculated. Results that were > 100% of matched control were defined as 100%.

Microsome stability, rat = assay type: in vitro ADME; conditions: parent (as sodium salt) remaining after 30 min, rat microsomes
Protocol: as §1

[5] = In vivo plasma pharmacokinetics in mice; conditions: mouse plasma, 10 mg/kg i.p. in 20% hydroxypropyl-β-cyclodextrin
Protocol: The in vivo PK parameters were measured for seven compounds selected on the basis of the in vitro assessment described above. Plasma pharmacokinetics were determined in male CD-1 mice for compounds 3, 10, 11, 26, 50, 58 and 59 (Table 6). Blood samples were collected at 5–8 time-points after dosing the compounds at 10 mg/kg in a solution of 20% hydroxypropyl-β-cyclodextrin by intraperitoneal (IP) injection. For analysis of the samples, chromatographic conditions were optimised by HPLC for each compound of interest and an internal standard. A liquid chromatography with tandem mass spectrometry (LC-MS/MS) method was then developed and validated for quantitation of each analyte.
PK studies were carried out in female C57BL/6J (female) mice using IP administration of test compound, dosing at 10 mg/kg in a solution of 20% hydroxypropyl-β-cyclodextrin. Mice (n=3 at each time point) were culled with excess inhalation of CO2 and blood collected by cardiac puncture at 5-8 time points after dosing in ice cold EDTA tubes. Plasma was separated by centrifuging at 6000 rpm for 5 min and stored at -80°C until analysis by LC-MS/MS. Frozen plasma was thawed on wet ice on the day of analysis. Ten μL of sample was transferred to a clean microcentrifuge tube and mixed with ice cold acetonitrile (40 μL containing internal standard) to precipitate the plasma proteins. The tubes were centrifuged at 13000 rpm for 5 min to obtain a clear supernatant which was mixed with 0.01% formic acid-water (1:2). Ten to twenty µL was injected into the LC-MS/MS to measure the analyte concentration in the sample. The samples were quantitated against a calibration curve of known analyte concentrations run in test species blank plasma (sourced from Innovative Research, USA). The concentration vs time data was then fitted into a pharmacokinetic software program (Phoenix WinNonlin v6.2) to calculate the PK parameters including T½, Cmax and AUC0-∞.

[6] = Stability in solution (water, 20 °C, 24 h); assay type: physicochemical; conditions: sodium salt, 24 h at 20 °C in water
Protocol: Test compounds were incubated (10 μM; < 2.5% DMSO in final concentration) in Milli Q water (n=3 tubes) at 20 °C for 24 h. (Eppendorf Thermomixer Comfort). Aliquots were collected (25 μL) just before the incubation (time “0 min”) and at 24 h. These samples were stored in a -80 °C freezer until the analysis by liquid chromatography with tandem mass spectrometry spectrometry (LC-MS/MS) – see next section for method development. Samples were thawed on wet ice on the day of assay. Thawed aliquots were mixed by vortex mixer, 10 μL of the sample transferred to a clean tube, 40 μL of ice cold acetonitrile added (containing internal standard compound), then centrifuged at 13,000 rpm for 5 min, 40 μL of clear supernatant transferred to an HPLC insert and mixed with 80 μL of 0.01% formic acid in water. Ten to 20 μL was injected onto the LC-MS/MS system. Results are based on the peak area ratio of drug to internal standard at time “0 h” (i.e. before the incubation and at the end i.e. “24 h”).

recombinant perforin = target: T2, recombinant perforin (Mus musculus, UniProt P10820); experiment: Inhibition of perforin-mediated lysis of Jurkat cells (51Cr release); assay type: cell-based; conditions: recombinant perforin pre-incubated with compound 30 min; 51Cr-labelled Jurkat cells, 0.1% BSA, 4 h
T2 sequence (P10820 21-554): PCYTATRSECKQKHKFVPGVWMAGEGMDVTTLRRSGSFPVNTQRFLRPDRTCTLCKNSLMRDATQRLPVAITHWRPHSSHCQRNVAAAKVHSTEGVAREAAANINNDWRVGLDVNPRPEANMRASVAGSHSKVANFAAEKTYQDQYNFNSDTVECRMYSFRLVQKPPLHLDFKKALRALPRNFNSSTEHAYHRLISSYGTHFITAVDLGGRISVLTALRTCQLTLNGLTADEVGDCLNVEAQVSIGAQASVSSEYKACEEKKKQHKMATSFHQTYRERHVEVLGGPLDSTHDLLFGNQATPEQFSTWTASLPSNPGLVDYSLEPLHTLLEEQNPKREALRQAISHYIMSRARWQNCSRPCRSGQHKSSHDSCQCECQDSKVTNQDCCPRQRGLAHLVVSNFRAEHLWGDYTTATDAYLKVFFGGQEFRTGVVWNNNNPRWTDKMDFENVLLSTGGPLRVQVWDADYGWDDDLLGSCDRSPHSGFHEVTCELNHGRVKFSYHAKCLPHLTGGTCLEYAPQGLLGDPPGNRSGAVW
Description: The supernatant was collected and assessed for its radioactive content on a gamma counter (Wallac Wizard 1470 automatic gamma counter).

SMILES | inhibition at 10 µM [1] [%] | Solubility [3] | solubility at 15 min [3] [µg/mL] | Microsome Stability (%) Mouse [4] [%] | Microsome Stability (%) Rat (Microsome stability, rat) [%] | AUC0-∞ [5] [µM·h] | Cmax [5] [µM] | T1/2 [5] [h] | Stability in Solution (% parent remaining) [6] [%] | Inhibition of Jurkat Cell Lysis IC50 (recombinant perforin) | KHYG1 Inhibition (% at 10 μM) ([1]; n = 4, 10 µM) [%] | melting point [°C] | viability at 24 h, 10 µM [2] [%]
CN1Cc2cc(-c3ccc(-c4cncc(NS(=O)(=O)c5ccc([N+](=O)[O-])cc5)c4)s3)ccc2C1=O [Compound 59, N-(5-(5-(2-Methyl-1-oxoisoindolin-5-yl)thiophen-2-yl)pyridin-3-yl)-4-nitrobenzenesulfonamide] | 77.5 ± 5.6 | – | 1680 | 85 | 72 | 383 | 64 | 2.2 | – | – | – | – | 85 ± 12
CN1Cc2cc(-c3ccc(-c4cncc(NS(=O)(=O)c5ccc(C#N)cc5)c4)s3)ccc2C1=O [Compound 50, 4-Cyano-N-(5-(5-(2-methyl-1-oxoisoindolin-5-yl)thiophen-2-yl)pyridin-3-yl)benzenesulfonamide] | 75 ± 7.8 | highly soluble | 12900 | 87 | 64 | 642 | 87 | 3.3 | 85 | – | – | – | 99.3 ± 0.3
Cc1ccc(NS(=O)(=O)c2ccc(F)cc2F)cc1-c1ccc(-c2ccc3c(c2)CN(C)C3=O)s1 [Compound 13, 2,4-Difluoro-N-(4-methyl-3-(5-(2-methyl-1-oxoisoindolin-5-yl)thiophen-2-yl)phenyl)benzenesulfonamide] | 50 | – | – | – | – | – | – | – | – | complete loss of potency | 50.3 ± 8.5 | 268 to 271 | 91.7 ± 10
CN1Cc2cc(-c3ccc(-c4cncc(NS(=O)(=O)c5ccccc5C(F)(F)F)c4)s3)ccc2C1=O [Compound 44, N-(5-(5-(2-Methyl-1-oxoisoindolin-5-yl)thiophen-2-yl)pyridin-3-yl)-2-(trifluoromethyl)benzenesulfonamide] | 85 ± 5.6 | negative impact on solubility | 88 | 84 | 49 | – | – | – | 92 | – | – | – | 100
CN1Cc2cc(-c3ccc(-c4ccc(NS(=O)(=O)c5ccc(F)cc5F)nc4)s3)ccc2C1=O [Compound 4, 2,4-Difluoro-N-(5-(5-(2-methyl-1-oxoisoindolin-5-yl)thiophen-2-yl)pyridin-2-yl)benzenesulfonamide] | – | – | – | – | – | – | – | – | – | activity is abolished | – | 269 to 272 | –
CN1Cc2cc(-c3ccc(-c4cncc(NS(=O)(=O)c5cccc(C#N)c5)c4)s3)ccc2C1=O [Compound 49, 3-Cyano-N-(5-(5-(2-methyl-1-oxoisoindolin-5-yl)thiophen-2-yl)pyridin-3-yl)benzenesulfonamide] | 83.7 ± 3.2 | – | – | – | – | – | – | – | – | poor activity | – | 282 to 285 | 94.4 ± 7.1

Second part, led by results:

inhibition at 10 µM [1] [%] | Solubility [3] | solubility at 15 min [3] [µg/mL] | Microsome Stability (%) Mouse [4] [%] | Microsome Stability (%) Rat (Microsome stability, rat) [%] | AUC0-∞ [5] [µM·h] | Cmax [5] [µM] | T1/2 [5] [h] | Stability in Solution (% parent remaining) [6] [%] | Inhibition of Jurkat Cell Lysis IC50 (recombinant perforin) | KHYG1 Inhibition (% at 10 μM) ([1]; n = 4, 10 µM) [%] | melting point [°C] | SMILES | viability at 24 h, 10 µM [2] [%]
88.8 ± 1.9 | negative impact on solubility | 574 | 97 | 80 | – | – | – | – | – | – | – | CN1Cc2cc(-c3ccc(-c4cncc(NS(=O)(=O)c5cccc(C(F)(F)F)c5)c4)s3)ccc2C1=O [Compound 45, N-(5-(5-(2-Methyl-1-oxoisoindolin-5-yl)thiophen-2-yl)pyridin-3-yl)-3-(trifluoromethyl)benzenesulfonamides] | 100
81.3 ± 6.3 | highly soluble | 10700 | 100 | 83 | 1019 | 124 | 4.5 | 88 | – | – | – | CN1Cc2cc(-c3ccc(-c4cncc(NS(=O)(=O)c5c(F)cc(F)cc5F)c4)s3)ccc2C1=O [Compound 26, 2,4,6-Trifluoro-N-(5-(5-(2-methyl-1-oxoisoindolin-5-yl)thiophen-2-yl)pyridin-3-yl)benzenesulfonamide] | 95.1 ± 2.1
– | – | – | – | – | – | – | – | – | complete loss of potency | – | 267 to 269 | CN1Cc2cc(-c3ccc(-c4cncc(NC(=O)c5ccc(F)cc5F)c4)s3)ccc2C1=O [Compound 8, 2,4-Difluoro-N-(5-(5-(2-methyl-1-oxoisoindolin-5-yl)thiophen-2-yl)pyridin-3-yl)benzamide] | –
